pEC50: −log10 of the molar value.

For the experiment, the system named is HCV type 1b replicon in Huh-7 luc/neo (Huh-Luc) cells. The experiment can be described thus: HCV replicon assay (Huh-Luc cells, luciferase read-out). The class given is cell-based. Conditions: inhibition of HCV replication, three days incubation, luciferase activity. The text has this:
The in vitro antiviral activity against HCV of the compounds of formula I can be tested in a cellular HCV replicon system based on Lohmann et al. (1999) Science 285:110-113, with the further modifications described by Krieger et al. (2001) Journal of Virology 75: 4614-4624 (incorporated herein by reference), which is further exemplified in the examples section. This model, while not a complete infection model for HCV, is widely accepted as the most robust and efficient model of autonomous HCV RNA replication currently available. It will be appreciated that it is important to distinguish between compounds that specifically interfere with HCV functions from those that exert cytotoxic or cytostatic effects in the HCV replicon model, and as a consequence cause a decrease in HCV RNA or linked reporter enzyme concentration. Assays are known in the field for the evaluation of cellular cytotoxicity based for example on the activity of mitochondrial enzymes using fluorogenic redox dyes such as resazurin. Furthermore, cellular counter screens exist for the evaluation of non-selective inhibition of linked reporter gene activity, such as firefly luciferase. Appropriate cell types can be equipped by stable transfection with a luciferase reporter gene whose expression is dependent on a constitutively active gene promoter, and such cells can be used as a counter-screen to eliminate non-selective inhibitors.
The compounds of formula I may be examined for activity in the inhibition of HCV RNA replication in a cellular assay aimed at identifying compounds that inhibit a HCV functional cellular replicating cell line, also known as HCV replicons. A suitable cellular assay is based on a bicistronic expression construct, as described by Lohmann et al. (1999), Science vol. 285 pp. 110-113 with modifications described by Krieger et al. (2001), Journal of Virology 75: 4614-4624, in a multi-target screening strategy.
The assay utilizes the stably transfected cell line Huh-7 luc/neo (hereafter referred to as Huh-Luc). This cell line harbors an RNA encoding a bicistronic expression construct comprising the wild type NS3-NS5B regions of HCV type 1b translated from an Internal Ribosome Entry Site (IRES) from encephalomyocarditis virus (EMCV), preceded by a reporter portion (FfL-luciferase), and a selectable marker portion (neo^R, neomycine phosphotransferase). The construct is bordered by 5′ and 3′ NTRs (non-translated regions) from HCV type 1b. Continued culture of the replicon cells in the presence of G418 (neo^R) is dependent on the replication of the HCV RNA. The stably transfected replicon cells that express HCV RNA, which replicates autonomously and to high levels, encoding inter alia luciferase, are used for screening the antiviral compounds.
The replicon cells are plated in 384 well plates in the presence of the test and control compounds which are added in various concentrations. Following an incubation of three days, HCV replication is measured by assaying luciferase activity (using standard luciferase assay substrates and reagents and a Perkin Elmer ViewLux™ ultraHTS microplate imager). Replicon cells in the control cultures have high luciferase expression in the absence of any inhibitor. The inhibitory activity of a compound on luciferase activity is monitored on the Huh-Luc cells, enabling a dose-response curve for each test compound. EC50 values are then calculated, which value represents the amount of the compound required to decrease the level of detected luciferase activity by 50%, or more specifically, the ability of the genetically linked HCV replicon RNA to replicate.
In general terms: A replicon is a self-replicating genome or part of one, used to study replication in cells.
As usually defined, the pEC50 is −log10 of the EC50, conventionally taken in molar units. Turning to `C[C@H](NP(=O)(OC[C@H]1O[C@@H](n2ccc(=O)[nH]c2=O)[C@](C)(N)[C@@H]1O)Oc1ccccc1)C(=O)OC1CCCC1` (single isomer, unassigned) [Example 5A], the pEC50 is 5.33.

On to `C[C@H](NP(=O)(OC[C@H]1O[C@@H](n2ccc(=O)[nH]c2=O)[C@](C)(N)[C@@H]1O)Oc1ccccc1)C(=O)OC1CCCC1` (single isomer, unassigned) [Example 5B], for which the pEC50 was 6.33.

Take `C[C@H](NP(=O)(OC[C@H]1O[C@@H](n2ccc(=O)[nH]c2=O)[C@](C)(N)[C@@H]1O)Oc1ccccc1)C(=O)OCCC(C)(C)C` (single isomer, unassigned) [Example 6A]: the pEC50 was 5.64. On to `C[C@H](NP(=O)(OC[C@H]1O[C@@H](n2ccc(=O)[nH]c2=O)[C@](C)(N)[C@@H]1O)Oc1ccccc1)C(=O)OCCC(C)(C)C` (single isomer, unassigned) [Example 6B], for which the pEC50 was 6.31. In the case of `C[C@H](NP(=O)(OC[C@H]1O[C@@H](n2ccc(=O)[nH]c2=O)[C@](C)(N)[C@@H]1O)Oc1ccccc1)C(=O)OC1CCCCCC1` (single isomer, unassigned) [Example 7A], the negative-log EC50 (pEC50) is 5.52. To `C[C@H](NP(=O)(OC[C@H]1O[C@@H](n2ccc(=O)[nH]c2=O)[C@](C)(N)[C@@H]1O)Oc1ccccc1)C(=O)OC1CCCCCC1` (single isomer, unassigned) [Example 7B] belongs 6.72; to `C[C@H](NP(=O)(OC[C@H]1O[C@@H](n2ccc(=O)[nH]c2=O)[C@](C)(N)[C@@H]1O)Oc1ccccc1)C(=O)OC1CCC1` (single isomer, unassigned) [Example 8A], 5.72; to `C[C@H](NP(=O)(OC[C@H]1O[C@@H](n2ccc(=O)[nH]c2=O)[C@](C)(N)[C@@H]1O)Oc1ccccc1)C(=O)OC1CCC1` (single isomer, unassigned) [Example 8B], 6.10.

`CC(C)OC(=O)[C@H](C)NP(=O)(OC[C@H]1O[C@@H](n2ccc(=O)[nH]c2=O)[C@](C)(N)[C@@H]1O)Oc1ccccc1` (single isomer, unassigned) [Example 9A]: the pEC50 was 4.89. Take `CC(C)OC(=O)[C@H](C)NP(=O)(OC[C@H]1O[C@@H](n2ccc(=O)[nH]c2=O)[C@](C)(N)[C@@H]1O)Oc1ccccc1` (single isomer, unassigned) [Example 9B]: the pEC50 was 6.04. With `C[C@H](NP(=O)(OC[C@H]1O[C@@H](n2ccc(=O)[nH]c2=O)[C@](C)(N)[C@@H]1O)Oc1ccccc1)C(=O)OC1CCCCCCC1` (single isomer, unassigned) [Example 10A], the pEC50 is 4.82. Take `C[C@H](NP(=O)(OC[C@H]1O[C@@H](n2ccc(=O)[nH]c2=O)[C@](C)(N)[C@@H]1O)Oc1ccccc1)C(=O)OC1CCCCCCC1` (single isomer, unassigned) [Example 10B]: the pEC50 is 6.54. Next, `CCOC(=O)[C@H](C)NP(=O)(OC[C@H]1O[C@@H](n2ccc(=O)[nH]c2=O)[C@](C)(N)[C@@H]1O)Oc1ccccc1` (single isomer, unassigned) [Example 11A]: 5.19; `CCOC(=O)[C@H](C)NP(=O)(OC[C@H]1O[C@@H](n2ccc(=O)[nH]c2=O)[C@](C)(N)[C@@H]1O)Oc1ccccc1` (single isomer, unassigned) [Example 11B]: 6.01. `C[C@H](NP(=O)(OC[C@H]1O[C@@H](n2ccc(=O)[nH]c2=O)[C@](C)(N)[C@@H]1O)Oc1ccccc1)C(=O)OC1CCCCC1` (single isomer, unassigned) [Example 12A]: the pEC50 was 6.42. For `C[C@H](NP(=O)(OC[C@H]1O[C@@H](n2ccc(=O)[nH]c2=O)[C@](C)(N)[C@@H]1O)Oc1ccccc1)C(=O)OC1CCCCC1` (single isomer, unassigned) [Example 12B], the pEC50 is 6.89. As for `C[C@H](NP(=O)(OC[C@H]1O[C@@H](n2ccc(=O)[nH]c2=O)[C@](C)(N)[C@@H]1O)Oc1ccccc1)C(=O)OCC(C)(C)C` (single isomer, unassigned) [Example 13A], the negative-log EC50 (pEC50) was 5.62. Consider `C[C@H](NP(=O)(OC[C@H]1O[C@@H](n2ccc(=O)[nH]c2=O)[C@](C)(N)[C@@H]1O)Oc1ccccc1)C(=O)OCC(C)(C)C` (single isomer, unassigned) [Example 13B], for which the pEC50 was 6.52. Turning to `CCCC(CCC)COC(=O)[C@H](C)NP(=O)(OC[C@H]1O[C@@H](n2ccc(=O)[nH]c2=O)[C@](C)(N)[C@@H]1O)Oc1ccccc1` (single isomer, unassigned) [Example 14A], the pEC50 was 5.80. On to `CCCC(CCC)COC(=O)[C@H](C)NP(=O)(OC[C@H]1O[C@@H](n2ccc(=O)[nH]c2=O)[C@](C)(N)[C@@H]1O)Oc1ccccc1` (single isomer, unassigned) [Example 14B], for which the pEC50 was 6.38. To `C[C@H](NP(=O)(OC[C@H]1O[C@@H](n2ccc(=O)[nH]c2=O)[C@](C)(N)[C@@H]1O)Oc1ccccc1)C(=O)OCc1ccccc1` (single isomer, unassigned) [Example 15A] belongs 5.51.

Take `C[C@H](NP(=O)(OC[C@H]1O[C@@H](n2ccc(=O)[nH]c2=O)[C@](C)(N)[C@@H]1O)Oc1ccccc1)C(=O)OCc1ccccc1` (single isomer, unassigned) [Example 15B]: the pEC50 is 6.18. As to `COC(=O)[C@H](C)NP(=O)(OC[C@H]1O[C@@H](n2ccc(=O)[nH]c2=O)[C@](C)(N)[C@@H]1O)Oc1ccccc1` (single isomer, unassigned) [Example 16A], the pEC50 is 5.29.

Take `COC(=O)[C@H](C)NP(=O)(OC[C@H]1O[C@@H](n2ccc(=O)[nH]c2=O)[C@](C)(N)[C@@H]1O)Oc1ccccc1` (single isomer, unassigned) [Example 16B]: the pEC50 is 5.68. In the case of `CC(C)COC(=O)[C@H](C)NP(=O)(OC[C@H]1O[C@@H](n2ccc(=O)[nH]c2=O)[C@](C)(N)[C@@H]1O)Oc1ccccc1` (single isomer, unassigned) [Example 17A], the pEC50 is 5.59. For the compound `CC(C)COC(=O)[C@H](C)NP(=O)(OC[C@H]1O[C@@H](n2ccc(=O)[nH]c2=O)[C@](C)(N)[C@@H]1O)Oc1ccccc1` (single isomer, unassigned) [Example 17B], the pEC50 was 6.22. For `CCCCCOC(=O)[C@H](C)NP(=O)(OC[C@H]1O[C@@H](n2ccc(=O)[nH]c2=O)[C@](C)(N)[C@@H]1O)Oc1ccccc1` (single isomer, unassigned) [Example 18A], the pEC50 was 5.74. For `CCCCCOC(=O)[C@H](C)NP(=O)(OC[C@H]1O[C@@H](n2ccc(=O)[nH]c2=O)[C@](C)(N)[C@@H]1O)Oc1ccccc1` (single isomer, unassigned) [Example 18B], the pEC50 was 6.49. Take `CCCCOC(=O)[C@H](C)NP(=O)(OC[C@H]1O[C@@H](n2ccc(=O)[nH]c2=O)[C@](C)(N)[C@@H]1O)Oc1ccccc1` (single isomer, unassigned) [Example 19A]: the pEC50 is 5.85. On to `CCCCOC(=O)[C@H](C)NP(=O)(OC[C@H]1O[C@@H](n2ccc(=O)[nH]c2=O)[C@](C)(N)[C@@H]1O)Oc1ccccc1` (single isomer, unassigned) [Example 19B], for which the pEC50 is 6.54. As for `CCC(CC)COC(=O)[C@H](C)NP(=O)(OC[C@H]1O[C@@H](n2ccc(=O)[nH]c2=O)[C@](C)(N)[C@@H]1O)Oc1ccccc1` (single isomer, unassigned) [Example 20A], the pEC50 is 5.80.

For the origin of these results see patent US20130143835A1, “HCV Polymerase Inhibitors” (MEDIVIR AB, priority 2011, published 2013).
